Experiment [1] relates to E. coli BT3/pACYCSP+pTVHVF1 strain. Put plainly: Growth of E. coli BT3/pACYCSP+pTVHVF1 (variant barley ferrochelatase) with herbicidal compound. It is filed as cell-based, Escherichia coli. The settings on record: 18 hours culture, Table 11. From the text: According to the description of Gibson, L. C. D. et al., Proc. Natl. Acad. Sci. USA, 92; p 1941 (1995), the DNA fragment containing bchH gene prepared in Example 1 was digested with the restriction enzymes NdeI and BglII. The resultant DNA fragment was inserted between NdeI restriction site and BamHI restriction site of expression vector pET11a (manufactured by Stratagene) to obtain plasmid pETBCH (FIG. 1). This plasmid pETBCH was introduced into E. coli BL21(DE3) strain competent cells (manufactured by Stratagene) according to the manual attached to the competent cells to obtain E. coli BL21(DE3)/pETBCH strain. The strain was inoculated into 1.5 ml LB liquid culture medium (1% tryptone, 0.5% yeast extract, 0.5% NaCl) containing 100 μg/ml ampicillin in a tube (14×10 mm), and the tube was covered with aluminum foil (hereinafter referred to as dark conditions), cultured with shaking at 37° C. under light of fluorescent lamp (about 8000 lux). When the absorbance at 600 nm of the liquid culture medium became about 0.6, isopropyl β-D-thiogalactopyranoside (IPTG) was added to the liquid culture medium so that the final concentration was 0.4 mM, and the culture was continued for about additional 20 hours. […] In contrast to this, when E. coli BL21(DE3)/pETBCH strain was cultured according to the same manner (with IPTG) except that the tube was not covered with aluminum foil (hereinafter referred to as light conditions), E. coli grew and turned red as above.
A plasmid bearing barley ferrochelatase gene was prepared by the method described in Miyamoto. K. et al. Plant Physiol. 105; p 769 (1994). The resultant plasmid was digested with restriction enzymes NspI and EcoRI to obtain the DNA fragment containing the gene encoding barley ferrochelatase whose signal sequence had been deleted (hereinafter referred to as the variant barley ferrochelatase). This DNA fragment was inserted between SphI restriction site and EcoRI restriction site of plasmid pTV119N (manufactured by Takara Shuzo Co., Ltd.) to construct plasmid pTVHVF1 (FIG. 12). […]
These E. coli strains were inoculated into YPT medium containing 10 or 1 ppm of the PPO inhibitory-type herbicidal compound represented by Structure 8, 100 μg/ml ampicillin, 15 μg/ml chloramphenicol, 10 μg/ml kanamycin, 10 μg/ml hemin and 50 μg/ml aminolevulinic acid, cultured under dark conditions or light conditions according to the same manner as in Example 2. Then, 18 hours after initiation of culture, the absorbance of liquid culture medium was measured at 600 nm. By taking the absorbance of the medium without the herbicidal compound as 1, the relative value of the absorbance of the medium containing the herbicidal compound was calculated.

In experiment [2] the test system is E. coli BT3/pACYCSP+pRASSL4 strain. As to the kind of experiment: Growth of E. coli BT3/pACYCSP+pRASSL4 with herbicidal compound. It is filed as cell-based, Escherichia coli. The settings on record: 1 ppm, 18 hours culture, Table 16. From the text:
According to the description of Gibson, L. C. D. et al., Proc. Natl. Acad. Sci. USA, 92; p 1941 (1995), the DNA fragment containing bchH gene prepared in Example 1 was digested with the restriction enzymes NdeI and BglII. The resultant DNA fragment was inserted between NdeI restriction site and BamHI restriction site of expression vector pET11a (manufactured by Stratagene) to obtain plasmid pETBCH (FIG. 1). This plasmid pETBCH was introduced into E. coli BL21(DE3) strain competent cells (manufactured by Stratagene) according to the manual attached to the competent cells to obtain E. coli BL21(DE3)/pETBCH strain. […] When the absorbance at 600 nm of the liquid culture medium became about 0.6, isopropyl β-D-thiogalactopyranoside (IPTG) was added to the liquid culture medium so that the final concentration was 0.4 mM, and the culture was continued for about additional 20 hours. […]
These E. coli strains were inoculated into YPT medium containing 1 ppm of the PPO inhibitory-type herbicidal compound represented by Structure 8, 100 μg/ml ampicillin, 15 μg/ml chloramphenicol, 10 μg/ml kanamycin, 10 μg/ml hemin and 50 μg/ml aminolevulinic acid, cultured under dark conditions or light conditions according to the same manner as in Example 2. Then, 18 hours after initiation of culture, the absorbance of the liquid culture medium was measured at 600 nm. […]

Take `C#CCOc1cc(N2C(=O)C3=C(CCCC3)C2=O)c(F)cc1Cl` [Structure 8]: the Relative absorbance in experiment [1] (in the dark, 1 ppm) is reported as 0.96; in experiment [1] (in the dark, 10 ppm), 0.94; in experiment [1] (in the light, 1 ppm) it was 0.94; in experiment [1] (in the light, 10 ppm), 0.39; in experiment [2] (in the dark) it was 0.98; in experiment [2] (in the light), 1.1.

Values taken from patent publication US7973219B2, “Method for producing transgenic plants resistant to weed control compounds which disrupt the porphyrin pathways of plants” (Sumitomo Chemical Company, Limited, priority 1998, dated 2011).
